According to patent publication US20240251792A1, “WEED CONTROL METHOD” (SYNGENTA CROP PROTECTION AG, priority 2021, published 2024):
Read-outs that look alike come from different tables or passages of the source.

How the values were obtained:
Assay type in all cases: in vivo
[1] = test system: IPOHE; experiment: Pre-emergence biological efficacy (Table 3); conditions: Ipomoea hederacea, 312 h, 1000 g/ha, after 13 days, read-out: evaluation (100=total damage to plant; 0=no damage to plant)
Experimental: (§1) Seeds of weeds and/or crops were sown in standard soil in pots. After cultivation for one day under controlled conditions in a glasshouse (at 24/19° C., day/night; 16 hours light), the plants were sprayed with an aqueous spray solution derived from the formulation of the technical active ingredient in a small amount of acetone and a special solvent and emulsifier mixture referred to as AMA (11.12% Emulsogen EL360 TM+44.44% N-methylpyrrolidone+44.44% Dowanol DPM glycol ether), to create a 50 g/l solution which was then diluted using 0.2% Genapol X080 as diluent to give the desired final dose of test compound.
(§2) The test plants were then grown under controlled conditions in the glasshouse (at 24/18° C., day/night; 15 hours light; 50% humidity) and watered twice daily. After 13 days the test was evaluated (100=total damage to plant; 0=no damage to plant).

[2] = test system: ZEAMX; experiment: Pre-emergence biological efficacy (Table 3); conditions: 312 h, 1000 g/ha, after 13 days, read-out: evaluation (100=total damage to plant; 0=no damage to plant)
Experimental: as §1, §2

[3] = test system: ECHCG; experiment: Pre-emergence biological efficacy (Table 3); conditions: Echinochloa crus-galli, 312 h, 1000 g/ha, after 13 days, read-out: evaluation (100=total damage to plant; 0=no damage to plant)
Experimental: as §1, §2

[4] = test system: AMARE; experiment: Pre-emergence biological efficacy (Table 3); conditions: Amaranthus retroflexus, 312 h, 1000 g/ha, after 13 days, read-out: evaluation (100=total damage to plant; 0=no damage to plant)
Experimental: as §1, §2

[5] = test system: STEME; experiment: Pre-emergence biological efficacy (Table 3); conditions: 312 h, after 13 days, read-out: evaluation (100=total damage to plant; 0=no damage to plant)
Experimental: as §1, §2

[6] = test system: ABUTH; experiment: Pre-emergence biological efficacy (Table 3); conditions: Abutilon theophrasti, 312 h, after 13 days, read-out: evaluation (100=total damage to plant; 0=no damage to plant)
Experimental: as §1, §2

[7] = test system: weeds and/or crops; experiment: Post-emergence biological efficacy (Table 4); conditions: 312 h, 1000 g/ha, evaluated after 13 days
Experimental: as §1, with “14 days” for “one day”, “F50” for “AMA”
as §2

[8] = STEME, read-out: damage to plant STEME (100=total damage; 0=no damage)
[9] = ZEAMX, read-out: damage to plant ZEAMX (100=total damage; 0=no damage)
[10] = Amaranthus retroflexus, AMARE, read-out: damage to plant AMARE (100=total damage; 0=no damage)
[11] = Echinochloa crus-galli, ECHCG, read-out: damage to plant ECHCG (100=total damage; 0=no damage)
[12] = Ipomoea hederacea, IPOHE, read-out: damage to plant IPOHE (100=total damage; 0=no damage)
[13] = Abutilon theophrasti, ABUTH, read-out: damage to plant ABUTH (100=total damage; 0=no damage)

Structure (SMILES)	pest or weed control at 1000 g/ha [1] [%]	plant injury at 1000 g/ha [2] [%]	pest or weed control at 1000 g/ha [3] [%]	pest or weed control at 1000 g/ha [4] [%]	pest or weed control at 1000 g/ha [5] [%]	pest or weed control at 1000 g/ha [6] [%]	pest or weed control at 1000 g/ha [7, 8] [%]	pest or weed control at 1000 g/ha [7, 9] [%]	pest or weed control at 1000 g/ha [7, 10] [%]	pest or weed control at 1000 g/ha [7, 11] [%]	pest or weed control at 1000 g/ha [7, 12] [%]	pest or weed control at 1000 g/ha [7, 13] [%]
COc1c(F)cccc1C(F)(F)C(=O)O [Compound 1-306, 2,2-Difluoro-2-(3-fluoro-2-methoxy-phenyl)acetic acid]	60	0	10	30	10	20	0	10	70	0	60	–
COc1c(F)ccc(F)c1C(F)(F)C(=O)O [Compound 1-314, 2-(3,6-Difluoro-2-methoxyphenyl)-2,2-difluoroacetic acid]	0	0	0	0	0	0	0	10	60	0	10	0
COc1c(Cl)cccc1C(F)(F)C(=O)O [Compound 1-317, 2-(3-chloro-2-methoxy-phenyl)-2,2-difluoro-acetic acid]	90	70	90	90	100	100	100	60	100	60	90	–
CSc1c(Cl)cccc1C(F)(F)C(=O)O [Compound 1-356, 2-(3-Chloro-2-(methylthio)phenyl)-2,2-difluoroacetic acid]	50	10	0	50	30	30	70	10	40	0	70	60
O=C(O)C(F)(F)c1cccc2c1OC(F)(F)O2 [Compound 1-385, 2-(2,2-Difluoro-1,3-benzodioxol-4-yl)-2,2-difluoro-acetic acid]	70	50	50	60	50	90	100	40	90	50	70	90
O=C(O)C(F)(F)c1c(Cl)ccc2c1OC(F)(F)O2 [Compound 1-389, 2-(5-Chloro-2,2-difluorobenzo[d][1,3]dioxol-4-yl)-2,2-difluoroaceticacid]	60	10	10	60	60	50	50	0	80	10	70	–
Cc1noc2cccc(C(F)(F)C(=O)O)c12 [Compound 1-391, 2,2-Difluoro-2-(3-methyl-1,2-benzoxazol-4-yl)acetic acid]	60	10	40	70	20	40	50	10	70	30	80	–
Cc1noc2ccc(Cl)c(C(F)(F)C(=O)O)c12 [Compound 1-395, 2-(5-Chloro-3-methyl-1,2-benzoxazol-4-yl)-2,2-difluoro-acetic acid]	50	0	20	30	10	10	20	0	40	10	70	20
Cc1ccc2onc(C)c2c1C(F)(F)C(=O)O [Compound 1-396, 2-(3,5-dimethylbenzo[d]isoxazol-4-yl)-2,2-difluoroacetic acid]	0	30	0	0	0	0	0	10	10	0	60	–
O=C(O)C(F)(F)c1c(Cl)ccc2ccccc12 [Compound 1-401, 2-(2-chloronaphthalen-1-yl)-2,2-difluoroacetic acid]	50	0	30	80	80	60	80	10	70	–	80	80
O=C(O)C(F)(F)c1c(F)ccc2cccnc12 [Compound 1-406, 2,2-Difluoro-2-(7-fluoro-8-quinolyl)acetic acid]	60	10	0	80	50	60	70	40	80	20	80	70
O=C(O)C(F)(F)c1c(Cl)ccc2cccnc12 [Compound 1-407, 2-(7-Chloroquinolin-8-yl)-2,2-difluoroacetic acid]	60	40	50	60	10	70	30	0	70	0	80	–
O=C(O)C(F)(F)c1cccc2nccnc12 [Compound 1-409, 2,2-Difluoro-2-(quinoxalin-5-yl)acetic acid]	70	0	20	50	30	70	40	10	70	10	80	–
